For 18 compounds, IC50 results are on record in patent US10246429B2, “Vinyl fluoride cyclopropyl fused thiazin-2-amine compounds as beta-secretase inhibitors and methods of use” (AMGEN INC., priority 2015, dated 2019).

SMILES strings stand for the structures.

The target of test [1] is T1, BACE1 (Homo sapiens (Human), UniProt P56817). As to the kind of experiment: In vitro enzymatic BACE1 FRET assay. It counts as biochemical. The settings on record: read-out: IC50 IP (μM) BACE1 Enzyme.
Target sequence in this assay (P56817 46-501): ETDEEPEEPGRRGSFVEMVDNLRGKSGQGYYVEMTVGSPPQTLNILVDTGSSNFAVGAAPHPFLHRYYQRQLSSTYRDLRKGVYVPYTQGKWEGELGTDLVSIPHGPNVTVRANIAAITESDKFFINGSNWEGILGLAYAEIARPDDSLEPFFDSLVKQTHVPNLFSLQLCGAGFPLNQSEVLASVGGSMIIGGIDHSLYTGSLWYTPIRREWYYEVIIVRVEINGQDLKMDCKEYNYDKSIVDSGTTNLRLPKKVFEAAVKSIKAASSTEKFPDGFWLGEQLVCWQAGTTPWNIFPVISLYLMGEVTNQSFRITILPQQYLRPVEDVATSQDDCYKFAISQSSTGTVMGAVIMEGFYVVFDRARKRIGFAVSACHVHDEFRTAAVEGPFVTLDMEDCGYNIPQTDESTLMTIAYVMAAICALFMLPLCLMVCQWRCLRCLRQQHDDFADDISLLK
From the text: (§1) In Vitro Enzymatic BACE1 and BACE2 FRET (Fluorescence Resonance Energy Transfer) Assays (Enzyme Assay Data in Table 1)
In test [2] the target is T1, BACE1. Description: BACE1 cell assay. It counts as cell-based.
Target sequence in this assay (P56817 46-501, species assumed): as the sequence (P56817 46-501) above
A further test has as its target BACE2 (Homo sapiens (Human), UniProt Q9Y5Z0). As to the kind of experiment: In vitro enzymatic BACE2 FRET assay. It counts as biochemical. Conditions: read-out: IC50 IP (μM) BACE2 Enzyme.
The next test addresses Cathepsin D (CatD) (Homo sapiens (Human), UniProt P07339). As to the kind of experiment: CatD assay. It counts as biochemical. Conditions: read-out: IC50 IP (μM) CatD.
Where [3] appears, read: read-out: IC50 IP (μM) BACE1 Cell.

Cathepsin D (CatD), sequence (P07339 65-412, species assumed): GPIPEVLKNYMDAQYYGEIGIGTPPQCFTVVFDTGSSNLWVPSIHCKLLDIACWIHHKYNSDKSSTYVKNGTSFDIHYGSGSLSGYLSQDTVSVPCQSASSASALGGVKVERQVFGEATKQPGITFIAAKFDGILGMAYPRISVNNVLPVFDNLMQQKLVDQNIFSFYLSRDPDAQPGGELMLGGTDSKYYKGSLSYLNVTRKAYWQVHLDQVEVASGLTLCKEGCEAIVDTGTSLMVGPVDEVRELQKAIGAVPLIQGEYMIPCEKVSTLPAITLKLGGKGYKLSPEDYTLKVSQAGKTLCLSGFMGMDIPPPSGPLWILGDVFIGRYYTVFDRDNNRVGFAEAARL
BACE2, sequence (Q9Y5Z0 63-518): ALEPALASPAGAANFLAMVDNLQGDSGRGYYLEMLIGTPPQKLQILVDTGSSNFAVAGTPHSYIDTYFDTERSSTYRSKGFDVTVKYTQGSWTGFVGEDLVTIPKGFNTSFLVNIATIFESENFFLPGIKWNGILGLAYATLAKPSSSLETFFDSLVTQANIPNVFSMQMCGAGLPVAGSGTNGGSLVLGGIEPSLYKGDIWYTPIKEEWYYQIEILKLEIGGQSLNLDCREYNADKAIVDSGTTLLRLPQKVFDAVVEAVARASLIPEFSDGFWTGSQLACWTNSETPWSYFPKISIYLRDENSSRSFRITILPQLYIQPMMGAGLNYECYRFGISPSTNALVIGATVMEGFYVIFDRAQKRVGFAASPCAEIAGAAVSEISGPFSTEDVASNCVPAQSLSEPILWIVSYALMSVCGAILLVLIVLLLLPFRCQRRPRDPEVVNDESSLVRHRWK
From the text for BACE2: as §1

In the case of `CC1(C)CC2CC(C)(CN2C(=O)[C@]23C[C@H]2[C@@](C)(c2cc(/C=C(\F)c4ccc(C#N)cn4)ccc2F)N=C(N)S3)C1` (stereo partly drawn) [Example 136, 6-((Z)-2-(3-((1S,5S,6S)-3-amino-5-methyl-1-(1,3,3-trimethyl-6-azabicyclo[3.2.1]octane-6-carbonyl)-2-thia-4-azabicyclo[4.1.0]hept-3-en-5-yl)-4-fluorophenyl)-1-fluorovinyl)nicotinonitrile], the 50% inhibitory concentration (IC50) (as a rule, the point on the concentration scale where inhibition reaches its midpoint) at BACE1 [1] was found to be 0.00582 µM; on BACE1 [2] (setting [3]), 0.0154 µM; at BACE2, 0.0363 µM; at Cathepsin D (CatD), 4.18 µM.

On to `C[C@]1(c2cc(/C=C(\F)c3ccc(C#N)cn3)ccc2F)N=C(N)S[C@@]2(C(=O)N3CCNC(=O)CC3)C[C@H]21` [Example 142, 6-((Z)-2-(3-((1S,5S,6S)-3-amino-5-methyl-1-(5-oxo-1,4-diazepane-1-carbonyl)-2-thia-4-azabicyclo[4.1.0]hept-3-en-5-yl)-4-fluorophenyl)-1-fluorovinyl)nicotinonitrile], for which the IC50 is 0.00178 µM at BACE1 [1], 0.00219 µM on BACE1 [2] (setting [3]), 0.0173 µM on BACE2 and 400 µM at Cathepsin D (CatD).

Consider `CC1CCN(C(=O)[C@]23C[C@H]2[C@@](C)(c2cc(/C=C(\F)c4ccc(C#N)cn4)ccc2F)N=C(N)S3)CC1` [Example 147, 6-((Z)-2-(3-((1S,5S,6S)-3-amino-5-methyl-1-(4-methylpiperidine-1-carbonyl)-2-thia-4-azabicyclo[4.1.0]hept-3-en-5-yl)-4-fluorophenyl)-1-fluorovinyl)nicotinonitrile], for which the IC50 was found to be 0.000793 µM at BACE1 [1], 0.003 µM at BACE1 [2] (setting [3]), 0.00486 µM at BACE2 and 93.9 µM at Cathepsin D (CatD).

With `CNC(=O)[C@]12C[C@H]1[C@@](C)(c1cc(/C=C(\F)c3cnc(OCC(C)=O)cn3)ccc1F)N=C(N)S2` [Example 152, (1S,5S,6S)-3-amino-5-(2-fluoro-5-((Z)-2-fluoro-2-(5-(2-oxopropoxy)pyrazin-2-yl)vinyl)phenyl)-N,5-dimethyl-2-thia-4-azabicyclo[4.1.0]hept-3-ene-1-carboxamide], the IC50 is 0.052 µM on BACE1 [1], 0.0846 µM at BACE1 [2] (setting [3]), 1.51 µM at BACE2 and 71.8 µM on Cathepsin D (CatD).

In the case of `CN(C)C(=O)[C@]12C[C@H]1[C@@](C)(c1cc(/C=C(\F)c3cnc(OCc4ncco4)cn3)ccc1F)N=C(N)S2` [Example 154, (1S,5S,6S)-3-amino-5-(2-fluoro-5-((Z)-2-fluoro-2-(5-(oxazol-2-ylmethoxy)pyrazin-2-yl)vinyl)phenyl)-N,N,5-trimethyl-2-thia-4-azabicyclo[4.1.0]hept-3-ene-1-carboxamide], the IC50 at BACE1 [1] amounted to 0.00798 µM; on BACE1 [2] (setting [3]) it was 0.0049 µM; on BACE2, 0.0455 µM; on Cathepsin D (CatD), 107 µM.

Take `CN(C)C(=O)[C@]12C[C@H]1[C@@](C)(c1cc(/C=C(\F)c3cnc(OCC#N)cn3)ccc1F)N=C(N)S2` [Example 158, (1S,5S,6S)-3-amino-5-(5-((Z)-2-(5-(cyanomethoxy)pyrazin-2-yl)-2-fluorovinyl)-2-fluorophenyl)-N,N,5-trimethyl-2-thia-4-azabicyclo[4.1.0]hept-3-ene-1-carboxamide]: the IC50 on BACE1 [1] worked out at 0.116 µM; on BACE1 [2] (setting [3]), 0.119 µM; at BACE2, 0.0927 µM; on Cathepsin D (CatD), 400 µM.

As to `CNC(=O)[C@]12C[C@H]1[C@@](C)(c1cc(/C=C(\F)c3cnc(Br)cn3)ccc1F)N=C(N)S2` [Example 163, (1S,5S,6S)-3-amino-5-(5-((Z)-2-(5-bromopyrazin-2-yl)-2-fluorovinyl)-2-fluorophenyl)-N,5-dimethyl-2-thia-4-azabicyclo[4.1.0]hept-3-ene-1-carboxamide], the IC50 at BACE1 [1] worked out at 0.0249 µM; against BACE1 [2] it was 0.291 µM; at BACE2, 0.266 µM; on Cathepsin D (CatD) it was 69.7 µM.

As for `CC#Cc1cnc(/C(F)=C/c2ccc(F)c([C@@]3(C)N=C(N)S[C@@]4(C(=O)NC)C[C@H]43)c2)cn1` [Example 164, (1S,5S,6S)-3-amino-5-(2-fluoro-5-((Z)-2-fluoro-2-(5-(prop-1-yn-1-yl)pyrazin-2-yl)vinyl)phenyl)-N,5-dimethyl-2-thia-4-azabicyclo[4.1.0]hept-3-ene-1-carboxamide], the IC50 on BACE1 [1] is 0.0125 µM; against BACE1 [2], 0.0497 µM; at BACE2, 0.229 µM; at Cathepsin D (CatD), 156 µM.

In the case of `CNC(=O)[C@]12C[C@H]1[C@@](C)(c1cc(/C=C(\F)c3cnc(C#CC4CC4)cn3)ccc1F)N=C(N)S2` [Example 165, (1S,5S,6S)-3-amino-5-(5-((Z)-2-(5-(cyclopropylethynyl)pyrazin-2-yl)-2-fluorovinyl)-2-fluorophenyl)-N,5-dimethyl-2-thia-4-azabicyclo[4.1.0]hept-3-ene-1-carboxamide], the IC50 on BACE1 [1] was 0.00707 µM; on BACE1 [2] (setting [3]), 0.121 µM; on BACE2, 0.307 µM; on Cathepsin D (CatD), 538 µM.

With `CNC(=O)[C@]12C[C@H]1[C@@](C)(c1cc(/C=C(\F)c3cnc(C#C[Si](C)(C)C)cn3)ccc1F)N=C(N)S2` [Example 166, (1S,5S,6S)-3-amino-5-(2-fluoro-5-((Z)-2-fluoro-2-(5-((trimethylsilyl)ethynyl)pyrazin-2-yl)vinyl)phenyl)-N,5-dimethyl-2-thia-4-azabicyclo[4.1.0]hept-3-ene-1-carboxamide], the IC50 came out at 0.0171 µM on BACE1 [1], 0.185 µM on BACE1 [2] (setting [3]), 1.72 µM on BACE2 and 146 µM on Cathepsin D (CatD).

Take `CN(C)C(=O)[C@]12C[C@H]1[C@@](C)(c1cc(/C=C(\F)c3ccc(C#N)cc3)ccc1F)N=C(N)S2` [Example 168, (1S,5S,6S)-3-amino-5-(5-((Z)-2-(4-cyanophenyl)-2-fluorovinyl)-2-fluorophenyl)-N,N,5-trimethyl-2-thia-4-azabicyclo[4.1.0]hept-3-ene-1-carboxamide]: the half-inhibitory concentration (IC50) at BACE1 [1] was found to be 0.00496 µM; at BACE1 [2] (setting [3]), 0.0368 µM; at BACE2 it was 0.104 µM; on Cathepsin D (CatD) it was 442 µM.

For `CN(C)C(=O)[C@]12C[C@H]1[C@@](C)(c1cc(/C=C(\F)c3cnc(C#N)nc3)ccc1F)N=C(N)S2` [Example 173, (1S,5S,6S)-3-amino-5-(5-((Z)-2-(2-cyanopyrimidin-5-yl)-2-fluorovinyl)-2-fluorophenyl)-N,N,5-trimethyl-2-thia-4-azabicyclo[4.1.0]hept-3-ene-1-carboxamide], the IC50 at BACE1 [1] amounted to 0.15 µM; on BACE1 [2] (setting [3]), 0.924 µM; at BACE2 it was 0.3 µM; at Cathepsin D (CatD), 225 µM.

Turning to `COC(=O)[C@]12C[C@H]1[C@@](C)(c1cc(/C=C(\F)c3ccc(Cl)cn3)cnc1F)N=C(N)S2` [Example 176, (1S,5S,6S)-methyl 3-amino-5-(5-((Z)-2-(5-chloropyridin-2-yl)-2-fluorovinyl)-2-fluoropyridin-3-yl)-5-methyl-2-thia-4-azabicyclo[4.1.0]hept-3-ene-1-carboxylate], the IC50 on BACE1 [1] was 0.142 µM; at BACE1 [2] (setting [3]), 1.76 µM; at BACE2, 0.214 µM; on Cathepsin D (CatD) it was more than 400 µM.

As to `COC(=O)[C@]12C[C@H]1[C@@](C)(c1cc(/C=C(/F)c3ccc(Cl)cn3)cnc1F)N=C(N)S2` [Example 177, (1S,5S,6S)-methyl 3-amino-5-(5-((E)-2-(5-chloropyridin-2-yl)-2-fluorovinyl)-2-fluoropyridin-3-yl)-5-methyl-2-thia-4-azabicyclo[4.1.0]hept-3-ene-1-carboxylate], the IC50 at BACE1 [1] came out at 0.291 µM; at BACE1 [2] (setting [3]) it was 5.44 µM; at BACE2, 2.9 µM; on Cathepsin D (CatD) it was 527 µM.

On to `C[C@]1(c2cc(/C=C(\F)c3ccc(C#N)cn3)cnc2F)N=C(N)S[C@@]2(C(=O)N3CC[C@@H](F)C3)C[C@H]21` [Example 181, 6-((Z)-2-(5-((1S,5S,6S)-3-amino-1-((R)-3-fluoropyrrolidine-1-carbonyl)-5-methyl-2-thia-4-azabicyclo[4.1.0]hept-3-en-5-yl)-6-fluoropyridin-3-yl)-1-fluorovinyl)nicotinonitrile], for which the IC50 was 0.0021 µM on BACE1 [1], 0.0073 µM on BACE1 [2] (setting [3]), 0.033 µM on BACE2 and 653 µM on Cathepsin D (CatD).

Take `C[C@]1(c2cc(/C=C(\F)c3ccc(C#N)cn3)cnc2F)N=C(N)S[C@@]2(C(=O)N3CC[C@H](F)C3)C[C@H]21` [Example 182, 6-((Z)-2-(5-((1S,5S,6S)-3-amino-1-((S)-3-fluoropyrrolidine-1-carbonyl)-5-methyl-2-thia-4-azabicyclo[4.1.0]hept-3-en-5-yl)-6-fluoropyridin-3-yl)-1-fluorovinyl)nicotinonitrile]: the IC50 worked out at 0.0024 µM at BACE1 [1], 0.007 µM at BACE1 [2] (setting [3]), 0.045 µM on BACE2 and 776 µM at Cathepsin D (CatD).

Turning to `CN(C)C(=O)[C@]12C[C@H]1[C@@](C)(c1cc(/C(F)=C/c3ccc(Cl)cn3)ccc1F)N=C(N)S2` [Example 185, (1S,5S,6S)-3-amino-5-(5-((Z)-2-(5-chloropyridin-2-yl)-1-fluorovinyl)-2-fluorophenyl)-N,N,5-trimethyl-2-thia-4-azabicyclo[4.1.0]hept-3-ene-1-carboxamide], the IC50 on BACE1 [1] amounted to 0.132 µM; on BACE1 [2] it was 0.695 µM; at BACE2, 0.0764 µM; on Cathepsin D (CatD), 172 µM.

Take `CN(C)C(=O)[C@]12C[C@H]1[C@@](C)(c1cc(/C(F)=C/c3ccc(C#N)cc3)ccc1F)N=C(N)S2` [Example 186, (1S,5S,6S)-3-amino-5-(5-((Z)-2-(4-cyanophenyl)-1-fluorovinyl)-2-fluorophenyl)-N,N,5-trimethyl-2-thia-4-azabicyclo[4.1.0]hept-3-ene-1-carboxamide]: the IC50 is 0.128 µM on BACE1 [1], 0.575 µM at BACE1 [2] (setting [3]), 0.302 µM at BACE2 and 48.7 µM on Cathepsin D (CatD).
